EP1036075B1, “SUBSTITUTED THIAZOLIDINEDIONE AND OXAZOLIDINEDIONE HAVING ANTIDIABETIC, HYPOLIPIDEMIA AND ANTIHYPERTENSIVE PROPERTIES” (Dr. Reddy's Laboratories Ltd., priority 1997, dated 1998)

System: C57BL/KsJ-db/db mice
Experiment: Blood sugar and triglycerides lowering activity in db/db mice, oral gavage daily for 6 days
Type: in vivo
Details: male db/db mice; for Maximum reduction in blood glucose level (%) / Triglyceride lowering (%): oral gavage daily for 6 days
Description: Mutation in colonies of laboratory animals and different sensitivities to dietary regimens have made the development of animal models with non-insulin dependent diabetes associated with obesity and insulin resistance possible. Genetic models such as db/db and ob/ob (See Diabetes, (1982) 31(1) : 1- 6) in mice and fa/fa and zucker rats have been developed by the various laboratories for understanding the pathophysiology of disease and testing the efficacy of new antidiabetic compounds (Diabetes, (1983) 32: 830-838; Annu. Rep. Sankyo Res. Lab. (1994) 46 : 1-57). The homozygous animals, C57 BL/KsJ-db/db mice developed by Jackson Laboratory, US, are obese. hyperglycemic, hyperinsulinemic and insulin resistant (J. Clin. Invest., (1990) 85 : 962-967), whereas heterozygous are lean and normoglycemic. In db/db model, mouse progressively develops insulinopenia with age, a feature commonly observed in late stages of human type II diabetes when blood sugar levels are insufficiently controlled. The state of pancreas and its course vary according to the models. Since this model resembles that of type II diabetes mellitus, the compounds of the present invention were tested for blood sugar and triglycerides lowering activities.
Male C57BL/KsJ-db/db mice of 8 to 14 weeks age, having body weight range of 35 to 60 grams, procured from the Jackson Laboraotory, USA, were used in the experiment. The mice were provided with standard feed (National Institute of Nutrition, Hyderabad, India) and acidified water, ad libitum. The animals having more than 300 mg / dl blood sugar were used for testing. The number of animals in each group was 4.
The random blood sugar and triglyceride levels were measured by collecting blood (100 µl) through orbital sinus, using heparinised capillary in tubes containing EDTA which was centrifuged to obtain plasma. The plasma glucose and triglycerides levels were measured spectrometrically, by glucose oxidase and glycerol-3-PO4 oxidase/peroxidase enzyme (Dr. Reddy's Lab. Diagnostic Division Kits, Hyderabad, India) methods respectively. On 6th day the blood samples were collected one hour after administration of test compounds / vehicle for assessing the biological activity.
Test compounds were suspended on 0.25 % carboxymethyl cellulose and administered to test group at a dose of 1 mg to 100 mg / kg through oral gavage daily for 6 days. The control group received vehicle (dose 10 ml / kg).

## O=C1NC(=O)C(Cc2ccc(OCC3NC(=O)c4ccccc4O3)cc2)S1 (stereo not drawn) [Example 3, 5-[4-1[[4-Oxo-3,4-dihydro-(2H)-1,3-benzoxazine-2-yl]methoxy]phenylmethyl]thiazotidin-2,4-dione]
Dose 10 mg/kg/day
  Maximum reduction in blood glucose level (%): 41%
  Triglyceride lowering (%): 48%

## CN1C(=O)c2ccccc2OC1COc1ccc(CC2SC(=O)NC2=O)cc1 (stereo not drawn) [Example 4, 5-[4-[[3-Methyl-4-oxo-3,4-dihydro-(2H)-1,3-benzoxazine-2-yl]methoxy]phenylmethyl] thiazolidin-2,4-dione]
Dose 10 mg/kg/day
  Maximum reduction in blood glucose level (%): 48%
  Triglyceride lowering (%): 42%

## CN1C(=O)c2ccccc2N(C)C1COc1ccc(CC2SC(=O)NC2=O)cc1 (stereo not drawn) [Example 11, 5-[4-[[1,3-Dimethyl-4-oxo-1,2,3,4-tetrahydro-2-quinazolinyl]methoxy]phenylmethyl) thiazolidin-2,4-dione]
Dose 1 mg/kg/day
  Maximum reduction in blood glucose level (%): 34%
  Triglyceride lowering (%): 28%

## CN1C(=O)c2ccccc2NC1COc1ccc(CC2SC(=O)NC2=O)cc1 (stereo not drawn) [Example 12, 5-[4-[[3-Methyl-4-oxo-1,2,3,4-tetrahydro-2-quinazolinyl]methoxy]phenylmethyl] thiazolidin-2,4-dione]
Dose 3 mg/kg/day
  Maximum reduction in blood glucose level (%): 55%
  Triglyceride lowering (%): 35%

## Cc1c(C)c2c(c(C)c1O)CCC(C)(COc1ccc(CC3SC(=O)NC3=O)cc1)O2 (stereo not drawn) [Troglitazone, reference compound]
100 mg / kg, daily dose, on 6th day
  reduction in random blood sugar level: 28%
